Assay results published in US9708314B2, “Heterocyclic amide compound” (NISSAN CHEMICAL INDUSTRIES, LTD., priority 2013, dated 2017).

Assays:
Format in all cases: in vivo
Cyperus difformis = assay: Test Example 3: herbicidal effect by application to foliage (Wagner pot, water depth 0.1-0.5 cm); conditions: Nineteenth Table; application to foliage; application herbicide amount 320 g/ha
How it was run: (§1)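 Seeds were sown in alluvial soil in Wagner pots, grown for 14 days at 25–30 °C, then sprayed uniformly on foliage with the emulsified compound diluted to a given rate per hectare. Injury was graded three weeks after treatment from 0 (≤5%) to 5 (≥90%).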

[1] = system: Echinochloa crus-galli var. crus-galli; assay: as above; conditions: Nineteenth Table; application to foliage; application herbicide amount 320 g/ha
How it was run: as §1

Leptochloa chinensis = assay: as above; conditions: Nineteenth Table; application to foliage; application herbicide amount 320 g/ha
How it was run: as §1

Abutilon theophrasti = assay: Test Example 4: herbicidal effect by application to foliage (diluvial soil, plastic box); conditions: for M (Abutilon theophrasti) herbicidal effect grade: Application herbicide amount 320 g/ha, foliage application
How it was run: (§2)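 Emulsion-formulated compound, diluted to a predetermined g/ha dose, applied by small sprayer to leaves and stems of 14-day-old seedlings grown in sterilized diluvial soil. Effect rated on 0–5 herbicidal-ratio scale three weeks on.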

Alopecurus myosuroides = assay: as above; conditions: for J (Alopecurus myosuroides) herbicidal effect grade: Application herbicide amount 320 g/ha, foliage application
How it was run: as §2

Amaranthus retroflexus = assay: as above; conditions: for N (Amaranthus retroflexus) herbicidal effect grade: Application herbicide amount 320 g/ha, foliage application
How it was run: as §2

Apera spica-venti. = assay: as above; conditions: for L (Apera spica-venti.) herbicidal effect grade: Application herbicide amount 320 g/ha, foliage application
How it was run: as §2

Avena fatua = assay: as above; conditions: for I (Avena fatua) herbicidal effect grade: Application herbicide amount 320 g/ha, foliage application
How it was run: as §2

Chenopodium album = assay: as above; conditions: for O (Chenopodium album) herbicidal effect grade: Application herbicide amount 320 g/ha, foliage application
How it was run: as §2

Digitaria ciliaris = assay: as above; conditions: for F (Digitaria ciliaris) herbicidal effect grade: Application herbicide amount 320 g/ha, foliage application
How it was run: as §2

[2] = system: Echinochloa crus-galli var. crus-galli; assay: as above; conditions: for H (Echinochloa crus-galli var. crus-galli) herbicidal effect grade: Application herbicide amount 320 g/ha, foliage application
How it was run: as §2

Galium spurium = assay: as above; conditions: for Q (Galium spurium) herbicidal effect grade: Application herbicide amount 320 g/ha, foliage application
How it was run: as §2

Lolium multiflorum Lam. = assay: as above; conditions: for K (Lolium multiflorum Lam.) herbicidal effect grade: Application herbicide amount 320 g/ha, foliage application
How it was run: as §2

Setaria viridis = assay: as above; conditions: for G (Setaria viridis) herbicidal effect grade: Application herbicide amount 320 g/ha, foliage application
How it was run: as §2

Stellaria media = assay: as above; conditions: for P (Stellaria media) herbicidal effect grade: Application herbicide amount 320 g/ha, foliage application
How it was run: as §2

Veronica persica = assay: as above; conditions: for R (Veronica persica) herbicidal effect grade: Application herbicide amount 320 g/ha, foliage application
How it was run: as §2

[3] = system: Beta vulgaris ssp. vulgaris; assay: Test Example 4: effect on crop by application to foliage (diluvial soil, plastic box); conditions: for f (Beta vulgaris ssp. vulgaris) effect on crop grade: Application herbicide amount 320 g/ha, foliage application
How it was run: as §2

Brassica campestris L. = assay: as above; conditions: for g (Brassica campestris L.) effect on crop grade: Application herbicide amount 320 g/ha, foliage application
How it was run: as §2

Glycine max = assay: as above; conditions: for d (Glycine max) effect on crop grade: Application herbicide amount 320 g/ha, foliage application
How it was run: as §2

Triticum aestivum = assay: as above; conditions: for e (Triticum aestivum) effect on crop grade: Application herbicide amount 320 g/ha, foliage application
How it was run: as §2

Zea mays = assay: as above; conditions: for c (Zea mays) effect on crop grade: Application herbicide amount 320 g/ha, foliage application
How it was run: as §2

[4] = system: directly sowed Oryza sativa; assay: as above; conditions: for b (directly sowed Oryza sativa) effect on crop grade: Application herbicide amount 320 g/ha, foliage application
How it was run: as §2

[5] = application to foliage, application herbicide amount 320 g/ha

SMILES | E (herbicidal effect grade) (Cyperus difformis) | H (herbicidal effect grade) [1] | D (herbicidal effect grade) (Leptochloa chinensis) | M (Abutilon theophrasti) herbicidal effect grade (Abutilon theophrasti) | J (Alopecurus myosuroides) herbicidal effect grade (Alopecurus myosuroides) | N (Amaranthus retroflexus) herbicidal effect grade (Amaranthus retroflexus) | L (Apera spica-venti.) herbicidal effect grade (Apera spica-venti.) | I (Avena fatua) herbicidal effect grade (Avena fatua) | O (Chenopodium album) herbicidal effect grade (Chenopodium album) | F (Digitaria ciliaris) herbicidal effect grade (Digitaria ciliaris) | H (Echinochloa crus-galli var. crus-galli) herbicidal effect grade [2] | Q (Galium spurium) herbicidal effect grade (Galium spurium) | K (Lolium multiflorum Lam.) herbicidal effect grade (Lolium multiflorum Lam.) | G (Setaria viridis) herbicidal effect grade (Setaria viridis) | P (Stellaria media) herbicidal effect grade (Stellaria media) | R (Veronica persica) herbicidal effect grade (Veronica persica) | f (Beta vulgaris ssp. vulgaris) effect on crop grade [3] | g (Brassica campestris L.) effect on crop grade (Brassica campestris L.) | d (Glycine max) effect on crop grade (Glycine max) | e (Triticum aestivum) effect on crop grade (Triticum aestivum) | also measured
O=C(Nc1nnco1)c1ccc(C(F)(F)F)n2c(C3CC3)nnc12 [1-144] | 2 (Herbicidal ratio of 20% or more and less than 40%) | 5 (Herbicidal ratio of 90% or more (almost completely withered)) | 4 (Herbicidal ratio of 70% or more and less than 90%) | 2 (Herbicidal ratio of 20% or more and less than 40%) | 1 (Herbicidal ratio of 5% or more and less than 20%) | 4 (Herbicidal ratio of 70% or more and less than 90%) | 0 (Herbicidal ratio of 5% or less (almost no effect)) | 2 (Herbicidal ratio of 20% or more and less than 40%) | 5 (Herbicidal ratio of 90% or more (almost completely withered)) | 3 (Herbicidal ratio of 40% or more and less than 70%) | 5 (Herbicidal ratio of 90% or more (almost completely withered)) | 3 (Herbicidal ratio of 40% or more and less than 70%) | 1 (Herbicidal ratio of 5% or more and less than 20%) | 2 (Herbicidal ratio of 20% or more and less than 40%) | 5 (Herbicidal ratio of 90% or more (almost completely withered)) | 4 (Herbicidal ratio of 70% or more and less than 90%) | 5 (Herbicidal ratio of 90% or more (almost completely withered)) | 4 (Herbicidal ratio of 70% or more and less than 90%) | 4 (Herbicidal ratio of 70% or more and less than 90%) | 1 (Herbicidal ratio of 5% or more and less than 20%) | c (Zea mays) effect on crop grade (Zea mays): 0 (Herbicidal ratio of 5% or less (almost no effect)); b (directly sowed Oryza sativa) effect on crop grade [4]: 0 (Herbicidal ratio of 5% or less (almost no effect))
CCC(CC)c1nnc2c(C(=O)Nc3nnco3)ccc(C(F)(F)F)n12 [1-145] | 5 (Herbicidal ratio of 90% or more (almost completely withered)) | 5 (Herbicidal ratio of 90% or more (almost completely withered)) | 5 (Herbicidal ratio of 90% or more (almost completely withered)) | 3 (Herbicidal ratio of 40% or more and less than 70%) | 1 (Herbicidal ratio of 5% or more and less than 20%) | 4 (Herbicidal ratio of 70% or more and less than 90%) | 3 (Herbicidal ratio of 40% or more and less than 70%) | 3 (Herbicidal ratio of 40% or more and less than 70%) | 5 (Herbicidal ratio of 90% or more (almost completely withered)) | 5 (Herbicidal ratio of 90% or more (almost completely withered)) | 5 (Herbicidal ratio of 90% or more (almost completely withered)) | 1 (Herbicidal ratio of 5% or more and less than 20%) | 2 (Herbicidal ratio of 20% or more and less than 40%) | 4 (Herbicidal ratio of 70% or more and less than 90%) | 5 (Herbicidal ratio of 90% or more (almost completely withered)) | 5 (Herbicidal ratio of 90% or more (almost completely withered)) | 5 (Herbicidal ratio of 90% or more (almost completely withered)) | 3 (Herbicidal ratio of 40% or more and less than 70%) | 3 (Herbicidal ratio of 40% or more and less than 70%) | 2 (Herbicidal ratio of 20% or more and less than 40%) | c (Zea mays) effect on crop grade (Zea mays): 0 (Herbicidal ratio of 5% or less (almost no effect)); b (directly sowed Oryza sativa) effect on crop grade [4]: 3 (Herbicidal ratio of 40% or more and less than 70%)
CSCc1nnc2c(C(=O)Nc3nnco3)ccc(C(F)(F)F)n12 [1-146] | 4 (Herbicidal ratio of 70% or more and less than 90%) | 5 (Herbicidal ratio of 90% or more (almost completely withered)) | 5 (Herbicidal ratio of 90% or more (almost completely withered)) | 4 (Herbicidal ratio of 70% or more and less than 90%) | 2 (Herbicidal ratio of 20% or more and less than 40%) | 5 (Herbicidal ratio of 90% or more (almost completely withered)) | 4 (Herbicidal ratio of 70% or more and less than 90%) | 4 (Herbicidal ratio of 70% or more and less than 90%) | 5 (Herbicidal ratio of 90% or more (almost completely withered)) | 5 (Herbicidal ratio of 90% or more (almost completely withered)) | 5 (Herbicidal ratio of 90% or more (almost completely withered)) | 5 (Herbicidal ratio of 90% or more (almost completely withered)) | 4 (Herbicidal ratio of 70% or more and less than 90%) | 5 (Herbicidal ratio of 90% or more (almost completely withered)) | 5 (Herbicidal ratio of 90% or more (almost completely withered)) | 5 (Herbicidal ratio of 90% or more (almost completely withered)) | 5 (Herbicidal ratio of 90% or more (almost completely withered)) | 5 (Herbicidal ratio of 90% or more (almost completely withered)) | 5 (Herbicidal ratio of 90% or more (almost completely withered)) | 3 (Herbicidal ratio of 40% or more and less than 70%) | c (Zea mays) effect on crop grade (Zea mays): 0 (Herbicidal ratio of 5% or less (almost no effect)); b (directly sowed Oryza sativa) effect on crop grade [4]: 5 (Herbicidal ratio of 90% or more (almost completely withered))
COc1ccc(CN(C)c2nnc3c(C(=O)Nc4nnc(C)o4)ccc(C(F)(F)F)n23)cc1 [1-167] |  | 1 (Herbicidal ratio of 5% or more and less than 20%) | 2 (Herbicidal ratio of 20% or more and less than 40%) |  |  |  |  |  |  |  |  |  |  |  |  |  |  |  |  |  | M: herbicidal effect on Abutilon theophrasti (Abutilon theophrasti; [5]): 2 (Herbicidal ratio of 20% or more and less than 40%); J: herbicidal effect on Alopecurus myosuroides (Alopecurus myosuroides; [5]): 0 (Herbicidal ratio of 5% or less (almost no effect)); N: herbicidal effect on Amaranthus retroflexus (Amaranthus retroflexus; [5]): 2 (Herbicidal ratio of 20% or more and less than 40%); L: herbicidal effect on Apera spica-venti. (Apera spica-venti.; [5]): 1 (Herbicidal ratio of 5% or more and less than 20%); I: herbicidal effect on Avena fatua (Avena fatua; [5]): 1 (Herbicidal ratio of 5% or more and less than 20%); O: herbicidal effect on Chenopodium album (Chenopodium album; [5]): 5 (Herbicidal ratio of 90% or more (almost completely withered)); F: herbicidal effect on Digitaria ciliaris (Digitaria ciliaris; [5]): 0 (Herbicidal ratio of 5% or less (almost no effect)); H: herbicidal effect on Echinochloa crus-galli var. crus-galli [2, 5]: 2 (Herbicidal ratio of 20% or more and less than 40%); Q: herbicidal effect on Galium spurium (Galium spurium; [5]): 2 (Herbicidal ratio of 20% or more and less than 40%); K: herbicidal effect on Lolium multiflorum Lam. (Lolium multiflorum Lam.; [5]): 1 (Herbicidal ratio of 5% or more and less than 20%); G: herbicidal effect on Setaria viridis (Setaria viridis; [5]): 0 (Herbicidal ratio of 5% or less (almost no effect)); P: herbicidal effect on Stellaria media (Stellaria media; [5]): 5 (Herbicidal ratio of 90% or more (almost completely withered)); R: herbicidal effect on Veronica persica (Veronica persica; [5]): 4 (Herbicidal ratio of 70% or more and less than 90%); f: effect on crop, Beta vulgaris ssp. vulgaris [3, 5]: 5 (Herbicidal ratio of 90% or more (almost completely withered)); g: effect on crop, Brassica campestris L. (Brassica campestris L.; [5]): 0 (Herbicidal ratio of 5% or less (almost no effect)); d: effect on crop, Glycine max (Glycine max; [5]): 1 (Herbicidal ratio of 5% or more and less than 20%); e: effect on crop, Triticum aestivum (Triticum aestivum; [5]): 0 (Herbicidal ratio of 5% or less (almost no effect)); c: effect on crop, Zea mays (Zea mays; [5]): 0 (Herbicidal ratio of 5% or less (almost no effect)); b: effect on crop, directly sowed Oryza sativa [4, 5]: 0 (Herbicidal ratio of 5% or less (almost no effect))
